Laboratory results taken from publication PMC11990662, “Synthesis and Evaluation of the Antiproliferative Activity of the Derivatives of 3,5-Diaryl-3,4-dihydro-2H-pyrrole-2-carboxylic Acids” (Molecules, 2025).

Tests used:
[1] = test system: PC3 (prostate adenocarcinoma); assay: MTT antiproliferative assay, PC3; type: cell-based, human; details: 72 h
Method: (§1) Antiproliferative activity of some compounds was evaluated on cell cultures derived from MDA-MB-231 (triple negative human breast carcinoma). […] This finding allowed us to further investigate the antiproliferative activity of selected compounds on additional tumor cell lines. We studied the influence of the stereochemical orientation of the substituents at C2 and C3 in substituted 3,4-dihydro-2H-pyrrole-2-carbonitriles. The antiproliferative activity of single diastereomers of some nitriles 4 and the amide cis-6m were assessed on multiple human cancer cell lines via the MTT assay. For these experiments, the following human cell lines were used: MCF-7 (luminal type A breast carcinoma), MD-MBA-231, H1299 (non-small-cell lung carcinoma cells), A549 (lung alveolar adenocarcinoma), HeLa (cervical cancer), HepG2 (hepatocellular carcinoma), HT-29 (colorectal adenocarcinoma) and PC3 (prostate adenocarcinoma). As a model of normal tissue, we used MCF-10A (non-tumorigenic epithelial cells of mammary gland). Table 5 and Table 6 present the values of concentration that inhibits cell viability to 50% (IC50) and selectivity index (SI = IC50(MCF-10A)/IC50(tumor cell line)).
(§2) The antiproliferative activity testing was performed on cell cultures from several human cancer cell lines the MTT-dye reduction assay, described by Mosmann. Cell lines were obtained from the American Type Cultures Collection (ATCC, Manassas, VA, USA). In this article we used the following cell lines: MCF-10A (ATCC, CRL-10317™) Non-tumorigenic epithelial cells of mammary gland, MCF-7 (ATCC, HTB-22™) Luminal type A breast carcinoma, MDA-MB-231 (ATCC, HTB-26™) Triple negative breast carcinoma, H1299 (ATCC, CRL-5803™) Non-small-cell lung carcinoma, A549 (ATCC, CRM-CCL-185™) Llung alveolar adenocarcinoma, HeLa (ATCC, CCL-2™) Cervical cancer, Hep G2 (ATCC, HB-8065™) Hepatocellular carcinoma, HT-29 (ATCC, HTB-38™) Colorectal adenocarcinoma, PC-3 (ATCC, CRL-1435™) Prostate adenocarcinoma. The cells were cultured in a cell culture laboratory at the Institute of Experimental Morphology, Pathology and Anthropology with a Museum—Bulgarian Academy of Sciences. They were cultured in Dulbecco’s Modified Eagle’s medium, high glucose (DMEM 4.5 g/L glucose), supplied with 10% fetal bovine serum and antibiotics in usual concentrations in a humidified atmosphere with 5% CO2 at 37.5 °C. In the case of MCF-10A cells, epidermal growth factor, insulin and cholera toxin were added in concentrations corresponding to the cell bank instructions. Cells were plated at a density of 1 × 10^3 cells per well in a 96-well flat-bottomed microplates and allowed to adhere for 24 h before treatment with the test compounds, dissolved in DMSO, and further diluted in culture medium to the final concentrations. A concentration ranges from 5 µM to 4.1 mM was tested over an incubation period of 72 h. Cisplatin (Sigma-Aldrich) was used as a positive control in a concentration range 50 nM to 100 µM. All experiments were performed in triplicates. The MTT-formazan absorption was measured using a microplate reader (TECAN, Sunrise^TM, Groedig/Salzburg, Austria) at 570 nm. Antiproliferative activities were expressed as IC50 values (concentrations required for 50% inhibition of cell growth), calculated using non-linear regression analysis (GraphPad Prizm8 Software). The statistical analysis involved One-way ANOVA followed by Bonferroni’s post hoc test p < 0.05 was accepted as the lowest level of statistical significance.

HeLa (cervical cancer) = assay: MTT antiproliferative assay, HeLa; type: cell-based, human; details: 72 h
Method: as §1, §2

[2] = test system: HepG2 (hepatocellular carcinoma); assay: MTT antiproliferative assay, HepG2; type: cell-based, human; details: 72 h
Method: as §1, §2

[3] = test system: MDA-MB-231 (triple negative human breast carcinoma); assay: MTT antiproliferative assay, MDA-MB-231; type: cell-based; details: for IC50: MDA-MB-231, MTT, 72 h; for antiproliferative activity (in words): MDA-MB-231, preliminary experiments
Method: as §1, §2

[4] = test system: MCF-7 (luminal type A breast carcinoma); assay: MTT antiproliferative assay, MCF-7; type: cell-based, human; details: MCF-7, MTT, 72 h
Method: as §1, §2

[5] = test system: A549 (lung alveolar adenocarcinoma); assay: MTT antiproliferative assay, A549; type: cell-based, human; details: 72 h
Method: as §1, §2

[6] = test system: HT-29 (colorectal adenocarcinoma); assay: MTT antiproliferative assay, HT-29; type: cell-based, human; details: HT-29, MTT, 72 h
Method: as §1, §2

[7] = test system: MCF-10A (non-tumorigenic epithelial cells of mammary gland); assay: MTT antiproliferative assay, MCF-10A; type: cell-based, human; details: 72 h
Method: as §1, §2

[8] = test system: H1299 (non-small-cell lung carcinoma cells); assay: MTT antiproliferative assay, H1299; type: cell-based, human
Method: as §1, §2

Structure (SMILES)	IC50 ([1]; Homo sapiens) [µM]	IC50 (HeLa (cervical cancer); Homo sapiens) [µM]	IC50 ([2]; Homo sapiens) [µM]	IC50 ([3]; Homo sapiens) [µM]	IC50 ([4]; Homo sapiens, MCF7) [µM]	IC50 ([5]; Homo sapiens) [µM]	IC50 ([6]; Homo sapiens) [µM]	IC50 ([7]; Homo sapiens) [µM]	IC50 ([8]; Homo sapiens, NCI-H1299, 72 h) [µM]	further results
Cc1ccc(C2=N[C@@H](C#N)[C@@H](c3ccccc3)C2)cc1 (racemic) [cis-4k]	297 ± 25	169 ± 10	235 ± 15	2560 ± 107	374 ± 6	82.2 ± 5.8	853 ± 46	104 ± 6	205 ± 6	–
COc1cc(O)c(C2=N[C@@H](C#N)[C@H](c3ccc(C)c(Br)c3)C2)c(OC)c1 (racemic) [trans-4o]	–	–	–	–	–	–	–	–	–	antiproliferative activity (in words) [3]: very poor activity
N.N.[Cl][Pt][Cl] [Cisplatin, reference compound]	–	–	–	–	–	–	–	–	–	IC50 [1]: 3.4 ± 0.5 µM; IC50 (HeLa (cervical cancer)): 19.6 ± 3.2 µM; IC50 [2]: 19.1 ± 0.4 µM; IC50 [3]: 1.8 ± 0.1 µM; IC50 [4]: 45.8 ± 3.2 µM; IC50 [5]: 38.6 ± 4.7 µM; IC50 [6]: 8.2 ± 0.3 µM; IC50 [7]: 23.2 ± 1.4 µM; IC50 ([8]; 72 h): 5 ± 0.9 µM
COc1cc(O)c(C2=N[C@@H](C#N)[C@H](c3ccc(C)c(F)c3)C2)c(OC)c1 (relative stereo) [cis-4m, rel-(2R,3S)-3-(3-fluoro-4-methylphenyl)-5-(2-hydroxy-4,6-dimethoxyphenyl)-3,4-dihydro-2H-pyrrole-2-carbonitrile]	–	–	–	–	–	–	–	–	–	IC50 [1]: 115 ± 4.8 µM; IC50 (HeLa (cervical cancer)): 224 ± 15 µM; IC50 [2]: 117 ± 4.8 µM; IC50 [3]: 16 ± 0.7 µM; IC50 [4]: 185 ± 26 µM; IC50 [5]: 97.6 ± 13 µM; IC50 [6]: 19.6 ± 1.8 µM; IC50 [7]: 170 ± 12 µM; IC50 ([8]; 72 h): 25.4 ± 2.3 µM
COc1ccc(C2=N[C@@H](C#N)[C@@H](c3ccccc3)C2)cc1 (racemic) [cis-4e]	478 ± 58	158 ± 6.5	554 ± 34	> 3620	1770 ± 232	341 ± 26	308 ± 8	427 ± 12	840 ± 43	–
COc1cc(O)c(C2=N[C@@H](C#N)[C@@H](c3ccc(C)c(Cl)c3)C2)c(OC)c1 (racemic) [cis-4n]	–	–	–	75.8	–	–	–	–	–	–
Cc1ccc(C2=N[C@@H](C#N)[C@H](c3ccccc3)C2)cc1 (relative stereo) [trans-4k, rel-(2R,3S)-5-(4-methylphenyl)-3-phenyl-3,4-dihydro-2H-pyrrole-2-carbonitrile]	121 ± 13	84.1 ± 2.3	159 ± 4.6	313 ± 20	568 ± 57	11.7 ± 0.8	136 ± 7.7	182 ± 5.8	354 ± 15	–
COc1cc(O)c(C2=N[C@@H](C#N)[C@H](c3ccc(C)c(Cl)c3)C2)c(OC)c1 (racemic) [trans-4n]	–	–	–	–	–	–	–	–	–	antiproliferative activity (in words) [3]: very poor activity
COc1cc(O)c(C2=N[C@@H](C#N)[C@@H](c3ccc(C)c(Br)c3)C2)c(OC)c1 (racemic) [cis-4o]	–	–	–	35.9	–	–	–	–	–	–
N#C[C@@H]1N=C(c2ccccc2)C[C@@H]1c1cccnc1 (racemic) [cis-4h]	1920 ± 70	2220 ± 136	3000 ± 107	> 4110	1380 ± 255	311 ± 19	1640 ± 132	2280 ± 178	2980 ± 62	–
COc1cc(O)c(C2=N[C@@H](C#N)[C@H](c3ccc(C)c(F)c3)C2)c(OC)c1 (racemic) [trans-4m]	44.3 ± 5.4	1170 ± 42	44.6 ± 2.8	717 ± 73	149 ± 12	32.2 ± 1.1	28.1 ± 2	79.3 ± 2.5	36.4 ± 2	–
COc1cc(O)c(C2=N[C@@H](C(N)=O)[C@@H](c3ccc(C)c(F)c3)C2)c(OC)c1 [cis-6m]	125 ± 7.6	1180 ± 37	117 ± 6.2	1990 ± 40	923 ± 37	136 ± 5.4	64.3 ± 4.8	429 ± 28	1880 ± 51	–
